{
  "source": "patent US9938510B2",
  "about": "“Photobacterium sp. alpha-2-6-sialyltransferase variants” (The Regents of the University of California, priority 2014, dated 2018)",
  "key": {"[1]": {"system": "Photobacterium sp. JH-ISH-224 α2-6-sialyltransferase Psp26ST(15-501)-His6 A366G mutant, SEQ ID NO: 2", "test": "Sialyltransferase kinetics, Psp26ST(15-501)-His6 A366G mutant", "assay_type": "biochemical", "settings": "apparent", "method": "Reactions were carried out in duplicate at 20° C. for 20 minutes in a total volume of 10 μL in a proper buffer at the optimal pH according to the pH profile of the wild-type enzyme (see, Ding, 2011, supra). When LacβMU was used as an acceptor, the conditions were: Tris-HCl buffer (200 mM, pH 8.0), enzyme (0.3 μM), varied concentrations of LacβMU (0.1, 0.25, 0.4, 1.0, 2.0, 4.0, and 6.0 mM) with a fixed concentration of CMP-Neu5Ac (1.0 mM) or varied concentrations of CMP-Neu5Ac (0.1, 0.25, 0.4, 1.0, 2.0, 4.0, and 6.0 mM) with a fixed concentration of LacβMU (1.0 mM). When GalNAcα2AA was used as an acceptor, the conditions were: NaOAc-HOAc buffer (200 mM, pH 5.0), enzyme (6 μM), varied concentrations of GalNAcα2AA (0.5, 0.8, 1.0, 2.0, 4.0, 8.0, and 10.0 mM) and a fixed concentration of CMP-Neu5Ac (4.0 mM) or varied concentrations of CMP-Neu5Ac (0.5, 1.0, 2.0, 4.0, 5.0, 8.0, and 10.0 mM) with a fixed concentration of GalNAcα2AA (1.0 mM). When GalNAcαSer was used as an acceptor, the conditions were: Tris-HCl buffer (200 mM, pH 8.0), enzyme (0.6 μM), varied concentrations of GalNAcαSer (0.1, 0.25, 0.5, 1.0, 2.0, 4.0, 8.0, and 10.0 mM) and a fixed concentration of CMP-Neu5Ac (2.0 mM). When GalNAcαThr was used as an acceptor, the conditions were: Tris-HCl buffer (200 mM, pH 8.0), enzyme (3.0 μM), varied concentrations of GalNAcαThr (0.5, 1.0, 2.0, 4.0, 10.0, 20.0, 40.0, 60.0 mM) and a fixed concentration of CMP-Neu5Ac (4.0 mM). Results analysis was performed using the HPLC system as described above for sialyltransferase activity assays. Apparent kinetic parameters were obtained by fitting the experimental data (the average values of duplicate assay results) into the Michaelis-Menten equation using Grafit 5.0."}, "[2]": {"system": "Photobacterium sp. JH-ISH-224 α2-6-sialyltransferase Psp26ST(15-501)-His6, wild type, SEQ ID NO: 23", "settings": "apparent, cited from earlier work"}, "[3]": {"test": "Sialyltransferase activity assays, statements not tied to one acceptor (LacβMU, GalNAcα2AA, GalNAcαSer, GalNAcαThr)", "assay_type": "biochemical", "method": "When LacβMU was used as an acceptor, the assay was performed in duplicate in 10 μL of Tris-HCl buffer (100 mM, pH 8.0) containing CMP-Neu5Ac (1 mM), LacβMU (1 mM), MgCl2 (20 mM), wild-type Psp2,6ST(15-501)-His6 or its mutant (0.3 μM). When an α-GalNAc-terminated acceptor was used, the assay was performed in duplicate in 10 μL of Tris-HCl buffer (100 mM, pH 8.0 for GalNAcαSer/Thr) or NaOAc-HOAc (100 mM, pH 5.0 for GalNAcα2AA) containing CMP-Neu5Ac (1.5 mM), the acceptor (1 mM), MgCl2 (20 mM), wild-type Psp2,6ST(15-501)-His6 or its mutant (3.0 μM). Reactions were allowed to proceed at 20° C. for 20 min and stopped by adding 10 μL of cold ethanol. The analysis of sialylated product conversion was performed using the HPLC system as described above for sialyltransferase activity assay. The 4-methylumbelliferone (MU)-labeled fluorescent acceptor and the product formed were detected with excitation at 325 nm and emission at 372 nm. The 2-aminobenzoic acid (2AA)-labeled fluorescent acceptors and the products formed were detected with excitation at 315 nm and emission at 400 nm. The 9-fluorenylmethylcarbamate (Fmoc)-labeled fluorescent acceptors and the products formed were detected with excitation at 262 nm and emission at 313 nm."}, "[4]": {"settings": "varied LacβMU, CMP-Neu5Ac 1.0 mM, Tris-HCl pH 8.0, 20° C."}},
  "note": "Like-named read-outs stand apart in the source and are kept apart here.",
  "data": [
    {"molecule": "Cc1cc(=O)oc2cc(O[C@@H]3O[C@H](CO)[C@@H](O[C@@H]4O[C@H](CO)[C@H](O)[C@H](O)[C@H]4O)[C@H](O)[C@H]3O)ccc12", "note": "[LacβMU]", "values": [
      {"measurement": "Km", "setting": "[1]; [4]", "result": 0.41, "unit": "mM"},
      {"measurement": "kcat", "setting": "[1]; [4]", "result": "(1.0 ± 0.1) × 10^2 min^−1"},
      {"measurement": "Km", "setting": "[2]; acceptor LacβMU", "result": 0.36, "unit": "mM"},
      {"measurement": "kcat", "setting": "[2]; acceptor LacβMU", "result": "(1.0 ± 0.1) × 10^2 min^−1"}
    ]},
    {"molecule": "CC(=O)N[C@H]1[C@@H](O[C@H](C)[C@H](N)C(=O)O)O[C@H](CO)[C@H](O)[C@@H]1O", "note": "[GalNAcαOThr]", "values": [
      {"measurement": "Km", "setting": "[1]; varied GalNAcαThr, CMP-Neu5Ac 4.0 mM, Tris-HCl pH 8.0, 20° C.", "result": "7.2 ± 3", "unit": "mM"},
      {"measurement": "Km", "setting": "[2]; acceptor GalNAcαOThr", "result": "5.9 ± 1.6", "unit": "mM"}
    ]},
    {"molecule": "GalNAcα2AA", "values": [
      {"measurement": "Km", "setting": "[1]; varied GalNAcα2AA, CMP-Neu5Ac 4.0 mM, NaOAc-HOAc pH 5.0, 20° C.", "result": "5.5 ± 1", "unit": "mM"},
      {"measurement": "Km", "setting": "[2]; acceptor GalNAcα2AA", "result": "9.5 ± 2.7", "unit": "mM"}
    ]},
    {"molecule": "CC(=O)N[C@H]1[C@@H](OC[C@H](N)C(=O)O)O[C@H](CO)[C@H](O)[C@@H]1O", "note": "[GalNAcαOSer]", "values": [
      {"measurement": "Km", "setting": "[1]; varied GalNAcαSer, CMP-Neu5Ac 2.0 mM, Tris-HCl pH 8.0, 20° C.", "result": "1.7 ± 0.7", "unit": "mM"},
      {"measurement": "Km", "setting": "[2]; acceptor GalNAcαOSer", "result": "1.4 ± 0.1", "unit": "mM"}
    ]},
    {"molecule": "R153G: Psp26ST(15-501)-His6 with R153G point mutation; SEQ ID NO: 10 (protein, C-terminal His6; Synthetic Psp26ST(15-501) R153G) CNNSEENTQSIIKNDINKTIIDEEYVNLEPINQSNISFTKHSWVQTCGTQQLLTEQNKESISLSVVAPRLDDDEKYCFDFNGVSNKGEKYITKVTLNVVAPSLEVYVDHASLPTLQQLMDIIKSEEENPTAQRYIAWGGIVPTDEQMKELNITSFALINNHTPADLVQEIVKQAQTKHRLNVKLSSNTAHSFDNLVPILKELNSFNNVTVTNIDLYDDGSAEYVNLYNWRDTLNKTDNLKIGKDYLEDVINGINEDTSNTGTSSVYNWQKLYPANYHFLRKDYLTLEPSLHELRDYIGDSLKQMQWDGFKKFNSKQQELFLSIVNFDKQKLQNEYNSSNLPNFVFTGTTVWAGNHEREYYAKQQINVINNAINESSPHYLGNSYDLFFKGHPGGGIINTLIMQNYPSMVDIPSKISFEVLMMTDMLPDAVAGIASSLYFTIPAEKIKFIVFTSTETITDRETALRSPLVQVMIKLGIVKEENVLFWA", "values": [
      {"measurement": "sialylation activity compared to wild-type", "setting": "[3]", "result": "knocked out the sialylation activity completely"}
    ]},
    {"molecule": "A124D: Psp26ST(15-501)-His6 with A124D point mutation; SEQ ID NO: 12 (protein, C-terminal His6; Synthetic Psp26ST(15-501) A124D) CNNSEENTQSIIKNDINKTIIDEEYVNLEPINQSNISFTKHSWVQTCGTQQLLTEQNKESISLSVVAPRLDDDEKYCFDFNGVSNKGEKYITKVTLNVVAPSLEVYVDHDSLPTLQQLMDIIKSEEENPTAQRYIAWGRIVPTDEQMKELNITSFALINNHTPADLVQEIVKQAQTKHRLNVKLSSNTAHSFDNLVPILKELNSFNNVTVTNIDLYDDGSAEYVNLYNWRDTLNKTDNLKIGKDYLEDVINGINEDTSNTGTSSVYNWQKLYPANYHFLRKDYLTLEPSLHELRDYIGDSLKQMQWDGFKKFNSKQQELFLSIVNFDKQKLQNEYNSSNLPNFVFTGTTVWAGNHEREYYAKQQINVINNAINESSPHYLGNSYDLFFKGHPGGGIINTLIMQNYPSMVDIPSKISFEVLMMTDMLPDAVAGIASSLYFTIPAEKIKFIVFTSTETITDRETALRSPLVQVMIKLGIVKEENVLFWA", "values": [
      {"measurement": "sialylation activity compared to wild-type", "setting": "[3]", "result": "lost sialylation activity"}
    ]}
  ]
}
